Eight molecules from article PMC11320742, “Radiosynthesis and Evaluation of 11C-Labeled Isoindolone-Based Positive Allosteric Modulators for Positron Emission Tomography Imaging of Metabotropic Glutamate Receptor 2” (ACS Pharmacology & Translational Science, 2024) can be followed below.

For data set [1], the target named is T1, mGluR2 (Homo sapiens, UniProt Q14416).
T1 construct: expressed in transfected cells; host or cells: CHO
The experiment in a line: Saturation binding of tritiated ligands on CHO membranes stably expressing mGluR2. To be noted: for Ki: mGluR2, CHO membranes; for Kd: saturation binding of tritiated ligand, CHO membranes expressing mGluR2. How it is done: (§1) To determine the binding affinities, saturation binding experiments of the corresponding tritiated ligands were conducted on CHO membranes stably expressing mGluR2. […] Multiparameter optimization (MPO) is a valuable tool to evaluate the BBB permeability of drug candidates. […] To investigate the selectivity of AZ12559322 for mGluR2, further counter-screening of AZ12559322 was conducted, and the results are detailed in Figure 3C.

Data set [2] is described as follows: pKa. Format: physicochemical. Here is the method:
as §1

Data set [3] concerns the target CYP3A4 (Homo sapiens, UniProt P08684). The experiment in a line: CYP inhibition. Format: in vitro ADME.
The target of data set [4] is CYP2C19 (Homo sapiens, UniProt P33261). Briefly: CYP inhibition. The format is in vitro ADME.
In data set [5] the target is T2, CYP1A2 (Homo sapiens, UniProt P05177).
T2 sequence (P05177 1-516): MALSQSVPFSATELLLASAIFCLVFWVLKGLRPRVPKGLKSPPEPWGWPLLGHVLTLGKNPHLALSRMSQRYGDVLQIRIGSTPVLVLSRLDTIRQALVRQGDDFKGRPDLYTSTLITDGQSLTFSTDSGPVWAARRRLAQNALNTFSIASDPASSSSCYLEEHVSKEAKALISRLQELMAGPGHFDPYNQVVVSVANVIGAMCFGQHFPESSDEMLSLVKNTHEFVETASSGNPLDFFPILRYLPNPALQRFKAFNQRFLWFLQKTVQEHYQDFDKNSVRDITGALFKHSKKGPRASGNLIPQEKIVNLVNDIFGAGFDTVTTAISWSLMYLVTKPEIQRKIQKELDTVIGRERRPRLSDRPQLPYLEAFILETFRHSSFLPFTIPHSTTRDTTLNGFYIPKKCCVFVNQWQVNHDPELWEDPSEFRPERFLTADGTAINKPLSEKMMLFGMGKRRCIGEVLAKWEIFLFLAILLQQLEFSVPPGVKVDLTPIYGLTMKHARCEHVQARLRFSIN
The experiment in a line: CYP inhibition. Format: in vitro ADME.

For data set [6], the target named is T3, mGluR2 (Rattus norvegicus, UniProt P31421).
T3 construct: the brain sections of rat or cynomolgus monkey brains in 20 μm thickness; from tissue; host or cells: rat brain sections
The experiment in a line: In vitro ARG of [3H]AZ12559322 on rat brain tissues (binding data, Figure S1). To be noted: determined by in vitro ARG of [3H]AZ12559322 on rat brain tissues. Here is the method: To determine the binding affinities, saturation binding experiments of the corresponding tritiated ligands were conducted on CHO membranes stably expressing mGluR2. […] The blood–brain barrier permeability (log BB) values of 3a–3c were predicted in the range of −0.14 to −0.51. Multiparameter optimization (MPO) is a valuable tool to evaluate the BBB permeability of drug candidates. In general, CNS MPO scores on a scale between 0 and 6, and the score value ≥4.0 is highly desirable. […] Therefore, AZ12559322 was selected as the most promising mGluR2 PAM for further ADME profiling. To investigate the selectivity of AZ12559322 for mGluR2, further counter-screening of AZ12559322 was conducted, and the results are detailed in Figure 3C.
The tritium-labeled ligand [^3H]AZ12559322 for ARG studies was prepared by AstraZeneca.[23] Briefly, the brain sections of rat or cynomolgus monkey brains in 20 μm thickness were warmed to room temperature in a vacuum chamber over 3 h on the day of the experiment.[52] All sections were incubated in 50 mM Tris HCl, 5 mM MgCl2, and 0.9% NaCl (pH 7.4) for 5 min at room temperature. The brain sections were dried and incubated with [^3H]AZ12559322 in the above buffer for 30 min at ambient temperature. […]

Data set [7] deals with mGluR4 (Homo sapiens, UniProt Q14833). The experiment in a line: Counter-screening, mGluR family selectivity. Format: biochemical. How it is done: as §1
The target of data set [8] is mGluR1 (Homo sapiens, UniProt Q13255). Briefly: Counter-screening, mGluR family selectivity. The format is biochemical. Here is the method:
as §1

Data set [9] has as its target T1, mGluR2. The experiment in a line: Counter-screening, mGluR family selectivity. Format: biochemical. Here is the method: as §1
Data set [10] has as its target mGluR5 (Homo sapiens, UniProt P41594). The experiment in a line: Counter-screening, mGluR family selectivity. Format: biochemical. Here is the method: as §1
The target in data set [11] is mGluR6 (Homo sapiens, UniProt O15303). The experiment in a line: Counter-screening, mGluR family selectivity. Format: biochemical. How it is done:
as §1

Data set [12] addresses mGluR8 (Homo sapiens, UniProt O00222). The experiment in a line: Counter-screening, mGluR family selectivity. The format is biochemical. How it is done: as §1
Data set [13] deals with mGluR7 (Homo sapiens, UniProt Q14831). The experiment in a line: Counter-screening, mGluR family selectivity. Format: biochemical. Here is the method: as §1
Data set [14] has as its target mGluR3 (Homo sapiens, UniProt Q14832). The experiment in a line: Counter-screening, mGluR family selectivity. The format is biochemical. Here is the method: as §1
The target in data set [15] is CYP2D6 (Homo sapiens, UniProt P10635). Briefly: CYP inhibition. Format: in vitro ADME.
Data set [16] deals with hERG channel (Homo sapiens, UniProt Q12809). The experiment in a line: hERG channel inhibition. Format: biochemical.
Data set [17] has as its target CYP2C9 (Homo sapiens, UniProt P11712). Briefly: CYP inhibition. The format is in vitro ADME.
The subject of data set [18] is mGluR2. The experiment in a line: In vitro autoradiography of NHP prefrontal cortex with [3H]AZ12559322 (blocking). The format is binding, cynomolgus monkey. The settings on record: blocker 5 μM, n = 2. How it is done:
(§2) Encouraged by the promising ligand–protein binding ability of AZ12559322, in vitro autoradiography (ARG) studies were conducted on rat brain tissues to assess the binding specificity of [^3H]AZ12559322. Consistent with previous reports of the regional mGluR2 expression in the rat brain,[45] […] Subsequently, in vitro ARG studies with brain regions from cynomolgus monkeys were conducted to confirm the specificity in higher species. […] Subsequent immunohistochemical analyses verified that […] was binding to the regions with high expression of mGluR2 (see Figure S2 in the Supporting Information). Altogether, these studies indicated high mGluR2 in vitro binding specificity of AZ12559322 on rat and NHP brain tissue sections and positive allosteric mechanism of action.
Figure 6 In vitro autoradiography and quantitative analyses of NHP prefrontal cortex with [^3H]AZ12559322 (n = 2). Total binding and nonspecific binding in the presence of 5 μM of LY-487379 or AZD8418. *p < 0.05.
The tritium-labeled ligand [^3H]AZ12559322 for ARG studies was prepared by AstraZeneca.[23] Briefly, the brain sections of rat or cynomolgus monkey brains in 20 μm thickness were warmed to room temperature in a vacuum chamber over 3 h on the day of the experiment.[52] All sections were incubated in 50 mM Tris HCl, 5 mM MgCl2, and 0.9% NaCl (pH 7.4) for 5 min at room temperature. […]

The target in data set [19] is T3, mGluR2. The experiment in a line: In situ [35S]GTPγS autoradiography in rat brain tissue. The format is biochemical. The settings on record: in the presence of agonist LY379268. How it is done: as §2
(§3) The in situ GTPγS ARG studies in the rat and NHP brain tissues were conducted according to previous reports.[54] Briefly, […] thick brain tissue sections were incubated twice in assay buffer, pH 7.5 for 10 min at 25 °C and once in assay buffer with 2 mM GDP for 15 min at 25 °C. Slides were then incubated in an assay buffer containing 0.04 nM [^35S]GTPgS in the presence or absence of LY379268 and AZD8529 for 2 h at 25 °C. The incubation was stopped by washing twice for 3 min in ice-cold 50 mM Tris–HCl and a quick dip in ice-cold distilled water. […] Films were developed by standard techniques, digitized, and analyzed.

Data set [20] concerns mGluR2. Briefly: In situ [35S]GTPγS autoradiography in NHP brain tissue. Format: biochemical. The settings on record: in the presence of agonist LY379268. How it is done:
as §2, §3

The target of data set [21] is T3, mGluR2. Briefly: In vitro autoradiography of rat brain tissue with [3H]AZ12559322 (baseline and blockade). Format: binding. To be noted: baseline; high in prefrontal cortex, cerebral cortex, hippocampus; low in thalamus. Here is the method: as §2
Figure 5 In vitro autoradiography of rat brain tissue with [^3H]AZ12559322. (A) Autoradiograms after incubation with either [^3H]AZ12559322 only (baseline) or 10 μM AZ12522721 (blockade). (B) Quantitative analyses of the autoradiograms under baseline and blocking conditions (n = 4). ***p ≤ 0.001, ns = nonsignificant.
The tritium-labeled ligand [^3H]AZ12559322 for ARG studies was prepared by AstraZeneca.[23] Briefly, the brain sections of rat or cynomolgus monkey brains in 20 μm thickness were warmed to room temperature in a vacuum chamber over 3 h on the day of the experiment.[52] […]

Data set [22] has as its system mGluR2. The experiment in a line: PET imaging in NHP. Format: in vivo. The settings on record: cynomolgus monkey, IV injection, baseline. How it is done: With all three radioligands in hand, we sought to evaluate the feasibility of these radioligands for quantifying mGluR2 PAM occupancy in the NHP brain. PET imaging studies of [^11C]AZ12559322, [^11C]AZ12592068, and [^11C]AZ12588953 were performed in a cynomolgus monkey. Radioactivity was acquired for 120 min after IV injection of the respective radioligand. […] Further structural modification of these isoindolone derivatives is necessary to enhance brain exposure and provide a suitable radioligand for in vivo imaging.
PET imaging studies were conducted in one anesthetized healthy cynomolgus monkey and are fully detailed in Dahl et al.[53] The study was approved by the Stockholm Animal Research Ethical Committee (Dnr. N245/04). […] The head was immobilized with a fixation device, and body temperature was maintained by Bair Hugger model 505 (Arizant Healthcare, MN, USA) and continuously monitored by an esophageal thermometer. ECG, heart rate, blood pressure, respiratory rate, and oxygen saturation were continuously monitored throughout the experiments. […] Radioactivity in the brain was measured continuously for 123 min using the high-resolution research tomograph (HRRT; Siemens Molecular Imaging, Knoxville, TN, USA) according to a preprogrammed series of 34 frames.

T3 sequence (P31421 19-872): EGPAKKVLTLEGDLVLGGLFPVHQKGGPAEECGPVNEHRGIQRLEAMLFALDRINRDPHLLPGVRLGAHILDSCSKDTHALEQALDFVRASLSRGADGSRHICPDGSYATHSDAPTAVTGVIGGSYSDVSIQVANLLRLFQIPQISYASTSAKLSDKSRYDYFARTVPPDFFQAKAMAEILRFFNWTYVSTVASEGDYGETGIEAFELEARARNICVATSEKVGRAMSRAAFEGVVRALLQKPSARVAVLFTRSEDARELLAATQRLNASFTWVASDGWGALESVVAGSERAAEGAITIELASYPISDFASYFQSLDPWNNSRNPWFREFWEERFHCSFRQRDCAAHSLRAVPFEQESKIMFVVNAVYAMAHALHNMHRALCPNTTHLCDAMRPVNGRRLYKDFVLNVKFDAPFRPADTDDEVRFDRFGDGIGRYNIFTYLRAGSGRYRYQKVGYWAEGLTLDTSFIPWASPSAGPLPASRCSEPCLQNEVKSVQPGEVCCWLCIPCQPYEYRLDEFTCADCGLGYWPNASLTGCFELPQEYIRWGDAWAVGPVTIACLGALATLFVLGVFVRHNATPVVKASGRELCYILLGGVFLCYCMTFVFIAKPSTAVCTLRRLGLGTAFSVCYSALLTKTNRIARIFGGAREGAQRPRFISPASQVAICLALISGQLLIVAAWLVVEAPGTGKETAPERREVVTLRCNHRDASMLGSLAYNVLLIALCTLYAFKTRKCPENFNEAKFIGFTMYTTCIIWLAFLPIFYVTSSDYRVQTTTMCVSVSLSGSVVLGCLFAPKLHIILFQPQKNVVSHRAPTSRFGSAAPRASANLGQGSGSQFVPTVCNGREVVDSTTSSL
T1 sequence (Q14416 19-872): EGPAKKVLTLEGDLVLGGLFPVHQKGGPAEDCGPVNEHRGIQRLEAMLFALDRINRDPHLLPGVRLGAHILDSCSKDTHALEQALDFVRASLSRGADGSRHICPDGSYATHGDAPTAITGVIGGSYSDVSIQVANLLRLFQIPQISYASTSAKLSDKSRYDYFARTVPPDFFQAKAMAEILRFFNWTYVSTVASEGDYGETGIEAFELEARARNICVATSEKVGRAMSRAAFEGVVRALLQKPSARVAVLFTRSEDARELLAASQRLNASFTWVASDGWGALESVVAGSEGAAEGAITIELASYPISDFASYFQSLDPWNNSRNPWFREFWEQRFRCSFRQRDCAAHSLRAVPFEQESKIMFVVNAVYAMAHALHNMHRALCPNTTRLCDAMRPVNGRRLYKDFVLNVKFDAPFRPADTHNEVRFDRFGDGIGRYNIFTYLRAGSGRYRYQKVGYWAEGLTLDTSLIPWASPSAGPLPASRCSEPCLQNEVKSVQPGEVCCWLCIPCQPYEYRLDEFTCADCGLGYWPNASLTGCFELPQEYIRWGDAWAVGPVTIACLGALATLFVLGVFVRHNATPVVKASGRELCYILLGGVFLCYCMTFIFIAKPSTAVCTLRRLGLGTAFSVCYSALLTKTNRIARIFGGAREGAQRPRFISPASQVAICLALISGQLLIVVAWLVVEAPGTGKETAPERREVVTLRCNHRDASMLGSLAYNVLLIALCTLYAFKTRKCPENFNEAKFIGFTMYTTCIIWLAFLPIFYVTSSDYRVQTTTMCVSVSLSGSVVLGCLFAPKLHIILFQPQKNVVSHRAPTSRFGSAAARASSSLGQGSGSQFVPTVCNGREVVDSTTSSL
Chain of CYP2C19 (P33261 whole entry): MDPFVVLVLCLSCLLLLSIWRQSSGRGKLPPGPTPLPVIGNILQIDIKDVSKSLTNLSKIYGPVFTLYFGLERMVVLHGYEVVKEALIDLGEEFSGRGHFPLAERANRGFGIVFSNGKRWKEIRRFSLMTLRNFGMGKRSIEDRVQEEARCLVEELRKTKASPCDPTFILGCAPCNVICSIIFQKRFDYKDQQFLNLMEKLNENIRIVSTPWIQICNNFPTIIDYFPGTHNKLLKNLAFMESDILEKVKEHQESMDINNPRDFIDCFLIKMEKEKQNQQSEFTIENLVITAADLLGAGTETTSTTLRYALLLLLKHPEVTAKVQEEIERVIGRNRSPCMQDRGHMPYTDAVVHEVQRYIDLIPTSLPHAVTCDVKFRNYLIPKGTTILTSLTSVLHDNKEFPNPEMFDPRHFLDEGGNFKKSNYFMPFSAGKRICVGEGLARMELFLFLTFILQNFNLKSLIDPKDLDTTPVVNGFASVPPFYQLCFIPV
Chain of CYP2C9 (P11712 whole entry): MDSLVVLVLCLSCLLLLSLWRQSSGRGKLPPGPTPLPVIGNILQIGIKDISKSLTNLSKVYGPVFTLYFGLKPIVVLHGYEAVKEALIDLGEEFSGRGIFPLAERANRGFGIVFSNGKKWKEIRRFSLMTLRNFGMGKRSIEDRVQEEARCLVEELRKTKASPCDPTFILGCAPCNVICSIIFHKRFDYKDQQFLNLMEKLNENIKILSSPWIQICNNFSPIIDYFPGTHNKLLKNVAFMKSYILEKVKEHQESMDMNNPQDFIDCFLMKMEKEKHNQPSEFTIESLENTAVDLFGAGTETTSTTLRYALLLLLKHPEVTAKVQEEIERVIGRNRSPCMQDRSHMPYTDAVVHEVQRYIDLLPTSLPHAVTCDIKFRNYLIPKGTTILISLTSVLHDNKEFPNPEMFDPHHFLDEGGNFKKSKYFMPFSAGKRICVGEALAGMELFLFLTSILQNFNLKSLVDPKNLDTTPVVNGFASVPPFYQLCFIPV
Chain of CYP2D6 (P10635 whole entry): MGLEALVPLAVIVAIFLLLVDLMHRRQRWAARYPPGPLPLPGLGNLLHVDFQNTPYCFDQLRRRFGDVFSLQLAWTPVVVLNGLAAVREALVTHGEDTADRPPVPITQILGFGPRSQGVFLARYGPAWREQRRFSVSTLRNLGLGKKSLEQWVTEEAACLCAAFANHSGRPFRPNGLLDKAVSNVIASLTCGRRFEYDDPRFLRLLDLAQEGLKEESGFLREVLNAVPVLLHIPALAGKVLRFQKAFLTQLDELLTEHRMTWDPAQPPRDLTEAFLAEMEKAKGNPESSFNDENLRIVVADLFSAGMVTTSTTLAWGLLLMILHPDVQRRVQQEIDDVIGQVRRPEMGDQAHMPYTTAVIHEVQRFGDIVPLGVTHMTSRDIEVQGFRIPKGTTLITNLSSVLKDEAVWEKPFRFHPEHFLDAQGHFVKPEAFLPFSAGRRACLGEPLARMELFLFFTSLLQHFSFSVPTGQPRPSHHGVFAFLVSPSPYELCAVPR
Chain of CYP3A4 (P08684 whole entry): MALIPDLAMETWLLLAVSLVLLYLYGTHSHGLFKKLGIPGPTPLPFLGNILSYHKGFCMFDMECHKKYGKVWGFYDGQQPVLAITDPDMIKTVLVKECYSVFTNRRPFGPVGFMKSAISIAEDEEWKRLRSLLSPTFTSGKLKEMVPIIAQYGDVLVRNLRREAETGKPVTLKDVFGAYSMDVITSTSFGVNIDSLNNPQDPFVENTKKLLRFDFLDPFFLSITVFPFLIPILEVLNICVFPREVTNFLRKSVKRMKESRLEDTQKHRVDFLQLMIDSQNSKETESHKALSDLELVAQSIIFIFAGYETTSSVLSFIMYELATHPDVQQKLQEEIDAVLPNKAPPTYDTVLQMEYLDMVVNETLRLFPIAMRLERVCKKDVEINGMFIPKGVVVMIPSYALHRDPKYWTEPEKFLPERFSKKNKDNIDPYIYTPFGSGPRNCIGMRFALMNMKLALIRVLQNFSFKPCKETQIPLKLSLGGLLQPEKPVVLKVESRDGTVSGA
Chain of hERG channel (Q12809 whole entry): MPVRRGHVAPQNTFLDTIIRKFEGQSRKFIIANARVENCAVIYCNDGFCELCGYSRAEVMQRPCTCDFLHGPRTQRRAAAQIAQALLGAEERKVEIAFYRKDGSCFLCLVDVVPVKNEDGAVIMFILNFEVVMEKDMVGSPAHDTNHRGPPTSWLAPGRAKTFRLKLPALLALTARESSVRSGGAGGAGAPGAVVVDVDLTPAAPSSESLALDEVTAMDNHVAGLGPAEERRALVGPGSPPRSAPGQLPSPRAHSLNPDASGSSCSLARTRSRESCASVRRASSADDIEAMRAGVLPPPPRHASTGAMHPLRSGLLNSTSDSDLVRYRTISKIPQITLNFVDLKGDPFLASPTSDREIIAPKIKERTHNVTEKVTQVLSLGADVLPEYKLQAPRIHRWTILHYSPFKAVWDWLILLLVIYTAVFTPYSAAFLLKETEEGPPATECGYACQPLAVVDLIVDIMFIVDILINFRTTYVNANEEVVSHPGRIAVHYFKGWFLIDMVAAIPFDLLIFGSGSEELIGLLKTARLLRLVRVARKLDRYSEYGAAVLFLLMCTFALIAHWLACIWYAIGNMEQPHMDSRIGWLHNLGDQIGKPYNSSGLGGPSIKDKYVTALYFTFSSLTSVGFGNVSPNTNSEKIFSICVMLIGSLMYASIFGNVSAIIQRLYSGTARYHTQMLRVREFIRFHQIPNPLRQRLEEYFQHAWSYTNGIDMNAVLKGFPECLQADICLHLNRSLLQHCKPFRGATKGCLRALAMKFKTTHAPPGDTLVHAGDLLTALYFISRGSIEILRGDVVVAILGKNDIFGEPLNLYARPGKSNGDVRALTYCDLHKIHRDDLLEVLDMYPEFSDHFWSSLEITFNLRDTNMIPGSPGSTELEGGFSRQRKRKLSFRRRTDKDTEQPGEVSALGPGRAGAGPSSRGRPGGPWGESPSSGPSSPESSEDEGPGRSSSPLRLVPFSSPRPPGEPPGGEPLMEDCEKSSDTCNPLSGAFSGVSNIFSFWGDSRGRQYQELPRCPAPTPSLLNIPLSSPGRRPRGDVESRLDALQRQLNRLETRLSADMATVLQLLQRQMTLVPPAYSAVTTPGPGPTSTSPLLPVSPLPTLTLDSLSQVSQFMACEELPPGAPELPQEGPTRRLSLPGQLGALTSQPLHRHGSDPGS

The molecule `Cc1cc(-c2cccc(NS(C)(=O)=O)c2)cc2c1C(=O)N(C(C)C)C2` [AZ12559322, N-[3-(2-isopropyl-7-methyl-1-oxo-2,3-dihydro-1H-isoindol-5-yl)phenyl]methanesulfonamide] had a Ki in data set [1] of 2.68 nM. The Kd in data set [1] was determined as 11 nM; in data set [6], 1.31 nM. The Specific binding% in data set [1] (specific binding to mGluR2 in vitro) amounted to 89%. For the same molecule, the pKa in data set [2] is 8.46. Also, the inhibition at 1 µM was 0% in [3] (at 1 μM), 13% in data set [4] (at 1 μM), 0% in [15] (at 1 μM) and 8% in data set [17] (at 1 μM). Also, the inhibition at 10 µM stood at 12% in [3] (at 10 μM); 51% in data set [4] (at 10 μM); 37% in data set [5]; 11% in data set [15] (at 10 μM); 46% in data set [17] (at 10 μM). The IC50 in data set [7] is over 23600 nM; in [8], over 30000 nM; in [9], 4.7 nM; in data set [10], over 30000 nM; in data set [11], over 30000 nM; in data set [12], over 20300 nM. Moreover, the IC50 was over 30000 nM in [13], over 25000 nM in [14] and 9350 nM in [16]. For the same molecule, the “Selectivity for mGluR2 over all other mGluR subtypes” value in [9] (against all other mGluRs) was over 4000 fold.

Take `Cc1cc(-c2cccc(NS(C)(=O)=O)c2)cc2c1C(=O)N(C1CCC1)C2` [AZ12588953, N-(3-(2-cyclobutyl-7-methyl-1-oxoisoindolin-5-yl)phenyl)methanesulfonamide]: in data set [1], the Ki was determined as 2.02 nM and the Kd was 4.7 nM.

As for `Cc1cc(-c2cccc(NS(C)(=O)=O)c2)cc2c1C(=O)N([C@@H](C)C(F)(F)F)C2` [AZ12592068, (S)-N-(3-(2-(1,1,1-trifluoropropan-2-yl)-7-methyl-1-oxoisoindolin-5-yl)phenyl)methanesulfonamide], in [1], affinity was put at a Ki of 0.71 nM and the affinity, expressed as Kd, was 2 nM.

Regarding `C[C@@H](C1CC1)N1Cc2cc(-c3cc(C(=O)N(C)C)no3)cc(Cl)c2C1=O` [AZD8418], the “Diminished [3H]AZ12559322 binding in NHP prefrontal cortex” value in data set [18] is reported as 40–45%.

Regarding `Cc1cc(-c2nc(CN3CCNCC3)no2)cc2c1C(=O)N(Cc1ccc(OC(F)(F)F)cc1)C2` [AZD8529], the “Modulation in in situ GTPγS ARG” value in data set [19] and in data set [20] was “positive modulation” each time.

As to `COc1ccccc1Oc1ccc(N(Cc2cccnc2)S(=O)(=O)CC(F)(F)F)cc1` [LY-487379], the “Diminished [3H]AZ12559322 binding in NHP prefrontal cortex” value in data set [18] was 40–45%.

As to `Cc1cc(-c2cccc(NS(C)(=O)=O)c2)cc2c1C(=O)N(C(C)C)C2` [[^3H]AZ12559322, [^3H]-N-[3-(2-Isopropyl-7-methyl-1-oxo-2,3-dihydro-1H-isoindol-5-yl)phenyl]methanesulfonamide], the “Regional distribution of radioligand binding in rat brain sections” value in data set [21] is given as “heterogeneous distribution”.

With `CC(C)N1Cc2cc(-c3cccc(NS(C)(=O)=O)c3)cc([11CH3])c2C1=O` [[^11C]AZ12559322], the “Brain exposure in PET imaging” value in data set [22] is recorded as “low brain uptake”.
